Results reported in US6803362B2, “Heterocyclic compounds” (Ortho-McNeil Pharmaceutical inc., priority 2001, dated 2004).

Tested on: Croton Oil Induced Topical Inflammation in Mice
Assay: Croton oil induced topical inflammation in mice (ear swelling)
Format: in vivo, mouse
Settings: 10 mg/kg s.c.; vs vehicle group; 6 h
Experimental: Male or female ICR derived mice weighing 22±1 g were used. Space allocation for 5 animals was 45×23×15 cm. Mice were house in APEC R cages. All animals were maintained in a controlled temperature (22° C.-24° C.) and humidity (60%-80%) environment with 12 h light/dark cycles. Free access to standard lab chow for Mice (LabDiet Rodent Diet, PMI Nutrition International, USA) and tap water was granted.
Acetone (Wako, Japan), Croton oil (Sigma, USA), Indomethacin (Sigma, USA) and Pyrogen free saline (Astar, Taiwan).
Groups of 5 ICR derived male mice weighing 22±1 g were used. […] Ear swelling was measured by Dyer model micrometer gauge 6 h after croton oil as an index of inflammation.

For `CN1CCN(C(=O)c2cc3cc(Cl)ccc3[nH]2)CC1` [Compound 1, (5-Chloro-1H-indol-2-yl)-(4-methyl-piperazin-1-yl)-methanone], which “% inhib (ear swelling)” value is on record?
Its value is “(−28%)”.
